Test results from the NIST ThermoML archive (doi:10.1016/j.fluid.2015.03.003).
Numbers after ± are expanded uncertainties.

Conditions: 298.15 K, 101.33 kPa, Liquid; for electrical conductivity: Alternating current cell with electrodes; for mass density: Pycnometric method; for viscosity: Vibrating wire viscometry

Structure (SMILES)	electrical conductivity [S/m]	mass density [kg/m3]	viscosity [mPa·s]
CCCCn1cc[n+](CCCC)c1.[Br-] [1,3-dibutylimidazolium bromide]	0.918 ± 0.006	1200 ± 560	11.1 ± 1.8
CC(C)Cn1cc[n+](CC(C)C)c1.[Br-] [1,3-diisobutylimidazolium bromide]	0.403 ± 0.006	1250 ± 610	67.6 ± 13
CCCCn1cc[n+](C)c1.[Br-] [1-butyl-3-methylimidazolium bromide]	0.08 ± 0.01	1230 ± 330	363 ± 110
CC(C)Cn1cc[n+](C)c1.[Br-] [1-isobutyl-3-methylimidazolium bromide]	0.2 ± 0.004	1260 ± 340	134 ± 28
